The source of these data is US10112929B2, “Lactams as inhibitors of rock” (BRISTOL-MYERS SQUIBB COMPANY, priority 2015, dated 2018).

In one test the target is ROCK2 (Homo sapiens (Human), UniProt O75116).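 Also: rho kinase enzyme reaction halted with EDTA, phospho- and non-phospho peptide separated for read-out, kinase activity inhibition derived across a dose-response series, DMSO under 2%.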
In test [1] the test system is spontaneously hypertensive rat, renal hypertensive rat and deoxycortisone acetate salt hypertensive rat models. The note with it: cited from earlier work.
The test system of a further test is Dahl salt-sensitive rats. The note with it: rat, in vivo; cited from earlier work.
Test [2] deals with neointimal formation in rats. The following applies: cited from earlier work.
For test [3], the system named is porcine model of IL-1 beta-induced coronary stenosis. The following applies: long term treatment; cited from earlier work.
Another test relates to rat stroke model. The note with it: in vivo; cited from earlier work.

Structures are written as SMILES. Where two headings read alike, the source gives them in different places.

Sequence of ROCK2 (O75116 whole entry, species assumed): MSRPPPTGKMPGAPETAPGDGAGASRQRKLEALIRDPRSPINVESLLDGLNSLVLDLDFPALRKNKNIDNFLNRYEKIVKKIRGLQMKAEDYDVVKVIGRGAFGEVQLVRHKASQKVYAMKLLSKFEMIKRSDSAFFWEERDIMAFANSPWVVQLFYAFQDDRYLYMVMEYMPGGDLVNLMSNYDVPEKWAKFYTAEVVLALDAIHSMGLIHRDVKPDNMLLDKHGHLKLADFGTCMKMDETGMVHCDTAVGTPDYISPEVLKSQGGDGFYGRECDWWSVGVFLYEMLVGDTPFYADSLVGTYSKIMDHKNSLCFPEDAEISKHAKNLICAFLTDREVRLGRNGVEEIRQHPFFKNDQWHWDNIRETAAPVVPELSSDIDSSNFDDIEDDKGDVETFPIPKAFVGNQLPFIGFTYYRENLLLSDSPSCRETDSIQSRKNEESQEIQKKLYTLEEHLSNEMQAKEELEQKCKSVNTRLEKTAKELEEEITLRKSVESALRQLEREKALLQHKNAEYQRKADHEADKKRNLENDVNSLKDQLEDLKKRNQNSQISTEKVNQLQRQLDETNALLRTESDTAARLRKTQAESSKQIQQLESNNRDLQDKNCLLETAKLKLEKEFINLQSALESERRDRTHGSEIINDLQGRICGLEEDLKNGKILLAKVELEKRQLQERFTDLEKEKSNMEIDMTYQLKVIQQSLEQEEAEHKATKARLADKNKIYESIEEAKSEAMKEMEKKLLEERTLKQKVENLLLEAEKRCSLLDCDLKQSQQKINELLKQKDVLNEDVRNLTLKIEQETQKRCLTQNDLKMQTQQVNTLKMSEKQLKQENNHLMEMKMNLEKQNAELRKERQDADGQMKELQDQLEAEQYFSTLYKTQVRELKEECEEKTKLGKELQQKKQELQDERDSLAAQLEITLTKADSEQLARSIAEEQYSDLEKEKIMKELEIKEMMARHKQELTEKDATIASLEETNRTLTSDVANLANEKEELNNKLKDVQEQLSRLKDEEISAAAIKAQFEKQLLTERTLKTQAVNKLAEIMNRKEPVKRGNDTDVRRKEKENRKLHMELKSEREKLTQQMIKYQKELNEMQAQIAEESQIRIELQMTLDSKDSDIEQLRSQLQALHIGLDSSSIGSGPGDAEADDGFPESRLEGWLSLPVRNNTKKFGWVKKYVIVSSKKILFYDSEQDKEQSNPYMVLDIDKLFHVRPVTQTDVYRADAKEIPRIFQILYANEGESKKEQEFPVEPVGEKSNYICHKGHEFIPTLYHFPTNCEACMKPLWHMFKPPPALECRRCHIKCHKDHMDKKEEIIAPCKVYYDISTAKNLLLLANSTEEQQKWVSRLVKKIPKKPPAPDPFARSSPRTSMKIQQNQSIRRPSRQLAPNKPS

One may read the IC50 as the point on the concentration scale where inhibition reaches its midpoint. As for `COc1ccc(NC2CCN(c3ccc(-c4cn[nH]c4)cc3F)C2=O)cc1F` (single isomer, unassigned) [Example 345, 1-(2-fluoro-4-(1H-pyrazol-4-yl)phenyl)-3-((3-fluoro-4-methoxyphenyl)amino) pyrrolidin-2-one], on ROCK2, the IC50 lay within 100 to 2200 nM.
Same read-out and setting: the figure for `COc1cccc(NC2CCN(c3cc(F)c(-c4cn[nH]c4)cc3F)C2=O)c1` (single isomer, unassigned) [Example 354, 1-(2,5-difluoro-4-(1H-pyrazol-4-yl)phenyl)-3-((3-methoxyphenyl)amino)pyrrolidin-2-one] is 10 to 100 nM.
On the same count and under the same terms, with `O=C1C(Nc2cccc(OC(F)F)c2)CCN1c1ccc(-c2cn[nH]c2)c(F)c1` (single isomer, unassigned) [Example 356, 3-((3-(difluoromethoxy)phenyl)amino)-1-(3-fluoro-4-(1H-pyrazol-4-yl)phenyl) pyrrolidin-2-one] the figure was 10 to 100 nM.
On the same count and under the same terms, with `COc1cccc(NC2CCN(c3ncc(-c4cn[nH]c4)cc3F)C2=O)c1` (single isomer, unassigned) [Example 358, 1-(3-fluoro-5-(1H-pyrazol-4-yl)pyridin-2-yl)-3-((3-methoxyphenyl)amino) pyrrolidin-2-one] the figure was 100 to 2200 nM; with `COc1cc(F)cc(NC2CCN(c3ncc(-c4cn[nH]c4)cc3F)C2=O)c1` (single isomer, unassigned) [Example 360, 1-(3-fluoro-5-(1H-pyrazol-4-yl)pyridin-2-yl)-3-((3-fluoro-5-methoxyphenyl)amino) pyrrolidin-2-one], 100 to 2200 nM; with `COc1cccc(NC2CCN(c3ccc(-c4cn[nH]c4)c(C(F)(F)F)c3)C2=O)c1` (single isomer, unassigned) [Example 368, 1-(4-(1H-pyrazol-4-yl)-3-(trifluoromethyl)phenyl)-3-((3-methoxyphenyl)amino) pyrrolidin-2-one], 100 to 2200 nM.
For the compound `COc1cc(NC2CCN(c3ccc(-c4cn[nH]c4)c(C(F)(F)F)c3)C2=O)ccc1F` (single isomer, unassigned) [Example 372, 1-(4-(1H-pyrazol-4-yl)-3-(trifluoromethyl)phenyl)-3-((4-fluoro-3-methoxyphenyl)amino)pyrrolidin-2-one], at ROCK2, the 50% inhibitory concentration (IC50) fell in the range of 100 to 2200 nM.
Consider `COc1cc(NC2CCN(c3ccc(-c4cn[nH]c4)c(C#N)c3)C2=O)ccc1F` (single isomer, unassigned) [Example 380, 5-(3-((4-fluoro-3-methoxyphenyl)amino)-2-oxopyrrolidin-1-yl)-2-(1H-pyrazol-4-yl)benzonitrile], for which, on ROCK2, the concentration for half-maximal inhibition (IC50) lay in the range of 100 to 2200 nM.
Still for that read-out and setting: the figure for `COc1ccc(N[C@@H]2CCN(c3ccc(-c4cn[nH]c4)cc3)C2=O)c(OC)c1` [Example 395, (R)-1-(4-(1H-pyrazol-4-yl)phenyl)-3-((2,4-dimethoxyphenyl)amino)pyrrolidin-2-one] is 100 to 2200 nM.
`C[C@@H](N)[C@H]1CC[C@H](C(=O)Nc2ccncc2)CC1` [Example Y-27632]: the values for the blood pressure entry in test [1] (control rats) and in test [1] (three rat models of hypertension) were “only a minor effect on blood pressure” and “significantly decrease blood pressure”, respectively. Also, the “ventricular hypertrophy, fibrosis and function” value with Dahl salt-sensitive rats is “improve ventricular hypertrophy, fibrosis and function”. The neointimal formation entry in test [2] is “inhibited neointimal formation”.
With `O=S(=O)(c1cccc2cnccc12)N1CCCNCC1` [fasudil], in test [3], the coronary constrictive remodeling entry is listed as “promote a regression of coronary constrictive remodeling” and the coronary stenosis entry is recorded as “progressively reduce coronary stenosis”. Besides, the “infarct size and neurologic deficit” value in the test on rat stroke model is “reduce both the infarct size and neurologic deficit”.
